Measurements published in the NIST ThermoML archive (doi:10.1016/j.fluid.2006.04.014).

Details: Liquid, Closed cell (Static) method

FCC(F)(F)F [1,1,1,2-tetrafluoroethane]
Details | vapor or sublimation pressure [kPa]
263.15 K | 202.6
268.15 K | 245.5
273.15 K | 294.12
283.15 K | 416.6

CCF [fluoroethane]
Details | vapor or sublimation pressure [kPa]
253.15 K | 216.2
258.15 K | 261.4
263.15 K | 311.9
265.65 K | 342.3
268.15 K | 372.2
270.65 K | 405.3
273.15 K | 438.1
275.15 K | 468.9
278.15 K | 517.1
281.15 K | 567.1
283.15 K | 602.9
285.65 K | 650.2
288.15 K | 699
290.65 K | 752.4
293.15 K | 808.2
295.65 K | 866
298.15 K | 924.2
300.65 K | 990.3
303.15 K | 1051.4
305.65 K | 1121.5
308.15 K | 1192.8
310.65 K | 1269.5
313.15 K | 1348.6
315.65 K | 1428.6
318.5 K | 1516.5
320.65 K | 1607.1
323.15 K | 1703.9
